Legend:
Assay in all cases: two-electrode voltage clamp, Xenopus oocytes
Type in all cases: cell-based
Orco + Or35a [1] = target: T1, Orco + Or35a (Drosophila melanogaster, UniProt Q9V3Q2); details: agonist; 10 μM in Figure 2D; holding potential -80 mV, ND96 pH 7.4
T1 construct: same complex as P4, site on OrX; with Odorant receptor coreceptor
T1 sequence (Q9V3Q2 1-409): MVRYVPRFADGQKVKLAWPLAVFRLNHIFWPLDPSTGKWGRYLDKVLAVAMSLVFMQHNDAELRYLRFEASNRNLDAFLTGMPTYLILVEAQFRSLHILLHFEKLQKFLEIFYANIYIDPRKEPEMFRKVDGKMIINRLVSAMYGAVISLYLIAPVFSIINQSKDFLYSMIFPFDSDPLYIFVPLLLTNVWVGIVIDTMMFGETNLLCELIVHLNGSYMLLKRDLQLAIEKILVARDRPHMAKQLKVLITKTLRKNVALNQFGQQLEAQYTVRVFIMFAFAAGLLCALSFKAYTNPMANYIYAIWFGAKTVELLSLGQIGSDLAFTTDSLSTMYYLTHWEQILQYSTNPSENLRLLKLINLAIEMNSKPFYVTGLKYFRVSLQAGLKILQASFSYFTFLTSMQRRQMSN
T1 sequence (Q9VNB5 1-486 partner): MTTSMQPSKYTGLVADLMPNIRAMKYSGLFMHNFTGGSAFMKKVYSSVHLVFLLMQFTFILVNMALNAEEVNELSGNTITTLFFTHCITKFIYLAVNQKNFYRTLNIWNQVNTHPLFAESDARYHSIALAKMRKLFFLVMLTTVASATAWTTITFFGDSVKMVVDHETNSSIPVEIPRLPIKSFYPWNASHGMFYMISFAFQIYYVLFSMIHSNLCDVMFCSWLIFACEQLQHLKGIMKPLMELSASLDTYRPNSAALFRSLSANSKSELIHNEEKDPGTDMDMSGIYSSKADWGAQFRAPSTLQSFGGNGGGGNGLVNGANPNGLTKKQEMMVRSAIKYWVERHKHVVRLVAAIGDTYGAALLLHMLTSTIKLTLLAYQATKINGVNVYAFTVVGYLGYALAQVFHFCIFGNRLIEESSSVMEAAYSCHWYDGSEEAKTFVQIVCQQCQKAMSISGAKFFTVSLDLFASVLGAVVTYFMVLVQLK

Orco + Or24a [2] = target: T2, Orco + Or24a (Drosophila melanogaster, UniProt P81913); details: agonist; 0.3 μM in Figure 2C; holding potential -80 mV, ND96 pH 7.4
T2 construct: same complex as P3, site on OrX; with Odorant receptor coreceptor
T2 sequence (P81913 1-398): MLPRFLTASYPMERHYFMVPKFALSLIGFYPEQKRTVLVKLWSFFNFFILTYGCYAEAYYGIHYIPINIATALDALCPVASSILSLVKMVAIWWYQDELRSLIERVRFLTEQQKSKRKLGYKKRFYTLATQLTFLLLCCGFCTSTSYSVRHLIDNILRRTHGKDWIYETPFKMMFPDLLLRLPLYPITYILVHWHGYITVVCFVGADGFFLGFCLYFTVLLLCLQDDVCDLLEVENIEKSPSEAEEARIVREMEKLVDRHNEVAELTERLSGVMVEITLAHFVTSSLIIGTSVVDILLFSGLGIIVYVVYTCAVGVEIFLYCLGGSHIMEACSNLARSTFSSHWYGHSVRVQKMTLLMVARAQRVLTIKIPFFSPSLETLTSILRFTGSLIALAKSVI
T2 sequence (Q9VNB5 1-486 partner): T1 sequence (Q9VNB5 1-486 partner)

ORCO + Or24a [3] = target: T3, ORCO + Or24a (Drosophila melanogaster, UniProt Q9VNB5); details: agonist; holding potential -80 mV, ND96 pH 7.4, room temperature
T3 construct: heteromer; cRNAs co-injected in Xenopus laevis oocytes (pGEM-HE); for DTBP, site on Orco; with Odorant receptor 24a
T3 sequence (Q9VNB5 1-486): T1 sequence (Q9VNB5 1-486 partner)
T3 sequence (P81913 1-398 partner): T2 sequence (P81913 1-398)
Description: two-electrode voltage clamp, Xenopus oocytes on ORCO + Or24a

ORCO + Or1a [4] = target: T4, ORCO + Or1a (Drosophila melanogaster, UniProt Q9VNB5); details: agonist; holding potential -80 mV, ND96 pH 7.4, room temperature; unit inferred, μM from text for the ORCO row
T4 construct: heteromer; cRNAs co-injected in Xenopus laevis oocytes (pGEM-HE); for DTBP, site on Orco; with Odorant receptor 1a
T4 sequence (Q9VNB5 1-486): T1 sequence (Q9VNB5 1-486 partner)
T4 sequence (Q9W5G6 1-392 partner): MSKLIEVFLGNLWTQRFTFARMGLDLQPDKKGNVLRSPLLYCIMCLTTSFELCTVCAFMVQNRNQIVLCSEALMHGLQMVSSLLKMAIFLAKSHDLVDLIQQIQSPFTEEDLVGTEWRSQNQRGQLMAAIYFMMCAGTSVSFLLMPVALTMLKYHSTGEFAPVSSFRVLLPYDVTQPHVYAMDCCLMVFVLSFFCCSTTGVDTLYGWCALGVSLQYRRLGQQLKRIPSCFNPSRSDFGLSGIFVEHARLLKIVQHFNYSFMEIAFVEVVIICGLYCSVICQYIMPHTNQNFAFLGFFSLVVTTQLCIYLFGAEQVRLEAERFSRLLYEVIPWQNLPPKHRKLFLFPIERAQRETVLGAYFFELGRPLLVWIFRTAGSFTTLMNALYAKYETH
Description: two-electrode voltage clamp, Xenopus oocytes on ORCO + Or1a

Orco homomeric receptor = target: T5, Orco homomeric receptor (Drosophila melanogaster, UniProt Q9VNB5); details: agonist; holding potential -80 mV, ND96 pH 7.4, room temperature
T5 construct: synthesised cDNA in pGEM-HE, cRNA injected in Xenopus laevis oocytes; homotetramer
T5 sequence (Q9VNB5 1-486): T1 sequence (Q9VNB5 1-486 partner)

ORCO + Or35a [5] = target: T6, ORCO + Or35a (Drosophila melanogaster, UniProt Q9VNB5); details: agonist; holding potential -80 mV, ND96 pH 7.4, room temperature
T6 construct: heteromer; cRNAs co-injected in Xenopus laevis oocytes (pGEM-HE); for DTBP, site on Orco; with Odorant receptor 35a
T6 sequence (Q9VNB5 1-486): T1 sequence (Q9VNB5 1-486 partner)
T6 sequence (Q9V3Q2 1-409 partner): T1 sequence (Q9V3Q2 1-409)
Description: two-electrode voltage clamp, Xenopus oocytes on ORCO + Or35a

Orco + Or1a [6] = target: T7, Orco + Or1a (Drosophila melanogaster, UniProt Q9W5G6); details: agonist; 0.3 μM in Figure 2B; holding potential -80 mV, ND96 pH 7.4
T7 construct: same complex as P2, site on OrX; with Odorant receptor coreceptor
T7 sequence (Q9W5G6 1-392): T4 sequence (Q9W5G6 1-392 partner)
T7 sequence (Q9VNB5 1-486 partner): T1 sequence (Q9VNB5 1-486 partner)

## CCCCC(C)O (stereo not shown) [2-hexanol]
Orco + Or35a [1]
  normalised dose-response curve: illustrate the normalized activation of DTBP and other odorants for each heteromeric receptor

## CCCCCCCCO [octanol]
Orco + Or24a [2]
  normalised dose-response curve: illustrate the normalized activation of DTBP and other odorants for each heteromeric receptor

## CC(C)(C)c1ccc(O)c(C(C)(C)C)c1 [2,4-di-tert-butylphenol]
ORCO + Or24a [3]
  EC50: 51 ± 8.2 µM
ORCO + Or1a [4]
  EC50: 104 ± 27.7 µM
Orco homomeric receptor
  EC50: 13.4 ± 3 µM
ORCO + Or35a [5]
  EC50: 38.1 ± 3.8 µM

## CCCCCC(C)=O [2-heptanone]
Orco + Or1a [6]
  normalised dose-response curve: illustrate the normalized activation of DTBP and other odorants for each heteromeric receptor

Reference: article PMC10779170, “Identification of 2,4-Di-tert-butylphenol as a Novel Agonist for Insect Odorant Receptors” (International Journal of Molecular Sciences, 2023)
